Measured values as given in ChEMBL document CHEMBL1201862, “PubChem BioAssay data set” (2004).
Values belong to the compound of their own block, whether it stands above or below them. Activity calls are given as the source filed them.

Assays:
[1] = biological target: Sphingosine 1-phosphate receptor 2 (Homo sapiens, UniProt O95136); assay: Dose Response Cell Based Assay for Agonists of the S1P2 Receptor of Purchased Analogues. [Related pubchem assays: 729, 843, 854, 736 ]; assay type: functional
Sphingosine 1-phosphate receptor 2, sequence (O95136 whole entry): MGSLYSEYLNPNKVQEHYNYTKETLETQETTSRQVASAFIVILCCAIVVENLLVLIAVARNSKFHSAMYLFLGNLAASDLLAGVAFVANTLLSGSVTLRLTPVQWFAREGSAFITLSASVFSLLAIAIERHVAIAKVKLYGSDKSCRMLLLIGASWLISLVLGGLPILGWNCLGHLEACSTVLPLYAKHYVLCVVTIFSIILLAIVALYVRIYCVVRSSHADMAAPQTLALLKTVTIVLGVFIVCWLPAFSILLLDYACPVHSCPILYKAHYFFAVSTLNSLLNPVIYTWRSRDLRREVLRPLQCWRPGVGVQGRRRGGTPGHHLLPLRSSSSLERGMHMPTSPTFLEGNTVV

Estrogen receptor [2] = biological target: T1, Estrogen receptor (Homo sapiens, UniProt P03372);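 also: potency for inhibiting coactivator peptide recruitment to the receptor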
T1 sequence (P03372 whole entry): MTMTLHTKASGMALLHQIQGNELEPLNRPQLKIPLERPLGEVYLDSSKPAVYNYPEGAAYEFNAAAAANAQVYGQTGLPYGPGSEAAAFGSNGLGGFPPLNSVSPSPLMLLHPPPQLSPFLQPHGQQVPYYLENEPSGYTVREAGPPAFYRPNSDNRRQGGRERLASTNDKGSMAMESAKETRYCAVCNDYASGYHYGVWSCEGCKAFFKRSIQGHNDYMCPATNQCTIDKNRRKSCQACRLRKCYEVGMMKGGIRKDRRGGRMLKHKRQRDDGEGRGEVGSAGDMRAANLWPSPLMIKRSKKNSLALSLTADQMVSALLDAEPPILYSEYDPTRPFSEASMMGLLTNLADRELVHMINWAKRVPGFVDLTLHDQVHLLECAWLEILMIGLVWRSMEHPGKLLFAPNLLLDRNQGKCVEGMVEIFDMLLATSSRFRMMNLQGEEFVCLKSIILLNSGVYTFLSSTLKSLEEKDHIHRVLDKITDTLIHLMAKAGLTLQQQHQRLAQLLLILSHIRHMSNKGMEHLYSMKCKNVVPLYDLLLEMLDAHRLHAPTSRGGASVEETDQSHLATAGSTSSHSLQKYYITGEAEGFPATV

[3] = biological target: Protein-tyrosine kinase 2-beta (Homo sapiens, UniProt Q14289);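 also: potency of inhibitors of PYK2 kinase phosphorylation of poly-GT substrate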
Protein-tyrosine kinase 2-beta, sequence (Q14289 whole entry): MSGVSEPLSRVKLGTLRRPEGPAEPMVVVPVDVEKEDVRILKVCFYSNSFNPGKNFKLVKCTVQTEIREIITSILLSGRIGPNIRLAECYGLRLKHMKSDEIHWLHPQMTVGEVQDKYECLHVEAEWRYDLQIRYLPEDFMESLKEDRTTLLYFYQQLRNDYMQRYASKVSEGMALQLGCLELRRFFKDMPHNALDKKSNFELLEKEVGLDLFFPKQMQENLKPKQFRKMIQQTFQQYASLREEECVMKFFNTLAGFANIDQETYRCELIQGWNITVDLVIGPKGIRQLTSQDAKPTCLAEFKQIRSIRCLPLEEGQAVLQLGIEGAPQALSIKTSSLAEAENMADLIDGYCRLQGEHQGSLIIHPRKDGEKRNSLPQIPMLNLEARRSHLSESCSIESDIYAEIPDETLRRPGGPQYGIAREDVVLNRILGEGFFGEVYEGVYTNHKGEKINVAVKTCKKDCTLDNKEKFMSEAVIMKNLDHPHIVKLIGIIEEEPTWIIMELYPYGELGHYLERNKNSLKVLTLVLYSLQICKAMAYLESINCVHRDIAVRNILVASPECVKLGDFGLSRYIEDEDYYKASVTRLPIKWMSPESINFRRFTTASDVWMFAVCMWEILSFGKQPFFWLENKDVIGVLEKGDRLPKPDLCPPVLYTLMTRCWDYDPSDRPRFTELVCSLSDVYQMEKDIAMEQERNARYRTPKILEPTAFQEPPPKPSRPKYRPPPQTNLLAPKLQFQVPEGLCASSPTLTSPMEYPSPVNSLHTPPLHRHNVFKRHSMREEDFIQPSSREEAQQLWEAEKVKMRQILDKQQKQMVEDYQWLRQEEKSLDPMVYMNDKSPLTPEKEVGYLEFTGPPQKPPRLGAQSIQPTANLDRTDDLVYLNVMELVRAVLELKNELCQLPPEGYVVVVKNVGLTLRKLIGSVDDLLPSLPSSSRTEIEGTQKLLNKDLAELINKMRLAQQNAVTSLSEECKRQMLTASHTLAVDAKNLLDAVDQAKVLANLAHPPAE

NADPH oxidase 1 = NADPH oxidase 1 (Homo sapiens, UniProt Q9Y5S8); assay type: functional, cell-based;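 also: Cell-based assay with luminescence read-out, IC50 derived from inhibitor dose-response curves; intracellular ROS from endogenous NOX1 in intact HT29 colon cancer cells; potency of inhibitors that lower the ROS luminescence signal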
NADPH oxidase 1, sequence (Q9Y5S8 whole entry): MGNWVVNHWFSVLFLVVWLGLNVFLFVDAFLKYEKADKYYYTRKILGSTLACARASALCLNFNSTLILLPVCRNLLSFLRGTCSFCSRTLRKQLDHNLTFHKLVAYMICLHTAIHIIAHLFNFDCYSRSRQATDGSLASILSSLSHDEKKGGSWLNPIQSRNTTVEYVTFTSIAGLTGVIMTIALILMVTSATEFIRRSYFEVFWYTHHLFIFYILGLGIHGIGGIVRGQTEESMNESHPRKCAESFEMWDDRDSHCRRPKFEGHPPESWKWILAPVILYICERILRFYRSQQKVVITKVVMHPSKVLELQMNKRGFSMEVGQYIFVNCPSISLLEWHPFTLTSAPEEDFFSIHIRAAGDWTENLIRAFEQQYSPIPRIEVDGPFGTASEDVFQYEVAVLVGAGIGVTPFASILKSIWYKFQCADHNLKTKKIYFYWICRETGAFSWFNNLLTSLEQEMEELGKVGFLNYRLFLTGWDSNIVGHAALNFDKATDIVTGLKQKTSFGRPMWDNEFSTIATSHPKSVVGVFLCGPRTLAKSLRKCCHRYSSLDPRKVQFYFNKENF

[4] = biological target: Glyceraldehyde-3-phosphate dehydrogenase (Homo sapiens, UniProt P04406)
Glyceraldehyde-3-phosphate dehydrogenase, sequence (P04406 whole entry): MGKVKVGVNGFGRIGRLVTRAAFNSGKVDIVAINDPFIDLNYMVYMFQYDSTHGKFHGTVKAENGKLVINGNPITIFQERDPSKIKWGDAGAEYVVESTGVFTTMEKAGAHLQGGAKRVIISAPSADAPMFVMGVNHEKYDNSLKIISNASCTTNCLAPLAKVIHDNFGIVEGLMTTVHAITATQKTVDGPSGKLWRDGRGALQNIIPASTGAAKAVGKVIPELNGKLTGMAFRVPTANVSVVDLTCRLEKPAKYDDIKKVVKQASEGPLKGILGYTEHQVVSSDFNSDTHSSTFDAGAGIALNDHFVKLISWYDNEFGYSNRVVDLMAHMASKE

Bcl-2-related protein A1 [5] = biological target: T2, Bcl-2-related protein A1 (Mus musculus, UniProt Q07440); assay: small-molecule antagonists of Bfl-1/BH3 interaction – biochemical, TR-FRET, mouse Bfl-1, confirmation (AID 621);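 also: TR-FRET binding of GST-Bfl-1 to FITC-labelled Bid peptide via terbium antibody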
T2 sequence (Q07440 whole entry): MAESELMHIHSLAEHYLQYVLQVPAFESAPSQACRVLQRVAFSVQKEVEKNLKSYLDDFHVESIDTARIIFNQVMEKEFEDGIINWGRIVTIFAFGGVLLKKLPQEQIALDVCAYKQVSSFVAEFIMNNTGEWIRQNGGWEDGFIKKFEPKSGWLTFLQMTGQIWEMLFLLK

Bcl-2-related protein A1 [6] = biological target: T2, Bcl-2-related protein A1; assay: Bfl-1 binding inhibitors, SAR follow-up, biochemical, fluorescence polarization (AID 1070)
Estrogen receptor beta = Estrogen receptor beta (Homo sapiens, UniProt Q92731); assay: blockers of SRC-3 recruitment to ERβ – biochemical, ELISA, streptavidin-HRP readout, orthogonal assay, confirmation (AID 1060)
Estrogen receptor beta, sequence (Q92731 whole entry): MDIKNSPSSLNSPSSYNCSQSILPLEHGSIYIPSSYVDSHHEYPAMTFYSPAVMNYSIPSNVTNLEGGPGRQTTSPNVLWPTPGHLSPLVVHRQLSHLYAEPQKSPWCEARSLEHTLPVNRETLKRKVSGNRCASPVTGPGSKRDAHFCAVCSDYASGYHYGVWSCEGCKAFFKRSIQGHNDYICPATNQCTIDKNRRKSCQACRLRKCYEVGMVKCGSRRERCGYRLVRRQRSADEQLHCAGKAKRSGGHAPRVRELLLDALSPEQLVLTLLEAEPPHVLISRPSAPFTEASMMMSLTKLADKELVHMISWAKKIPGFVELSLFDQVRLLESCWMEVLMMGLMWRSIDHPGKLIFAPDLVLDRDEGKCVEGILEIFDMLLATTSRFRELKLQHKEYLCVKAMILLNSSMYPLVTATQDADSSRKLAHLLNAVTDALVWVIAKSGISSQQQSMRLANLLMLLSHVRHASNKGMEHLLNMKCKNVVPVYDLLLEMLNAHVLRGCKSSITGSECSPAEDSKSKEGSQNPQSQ

[7] = HPDE-C7 pancreatic duct cell viability loss – fluorescence, HTS (AID 430); assay type: functional, cell-based; conditions: Homo sapiens
[8] = viability loss of HPDE-C7K cells – cell-based, fluorescence, HTS, primary screen (AID 431); assay type: functional; conditions: Homo sapiens
Large T antigen = Large T antigen (Simian virus 40, UniProt P03070); assay type: functional, Betapolyomavirus macacae;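 also: Confirmatory-stage PubChem screen for compounds that inhibit SV40 T antigen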
Large T antigen, sequence (P03070 whole entry, the tested form may be a part): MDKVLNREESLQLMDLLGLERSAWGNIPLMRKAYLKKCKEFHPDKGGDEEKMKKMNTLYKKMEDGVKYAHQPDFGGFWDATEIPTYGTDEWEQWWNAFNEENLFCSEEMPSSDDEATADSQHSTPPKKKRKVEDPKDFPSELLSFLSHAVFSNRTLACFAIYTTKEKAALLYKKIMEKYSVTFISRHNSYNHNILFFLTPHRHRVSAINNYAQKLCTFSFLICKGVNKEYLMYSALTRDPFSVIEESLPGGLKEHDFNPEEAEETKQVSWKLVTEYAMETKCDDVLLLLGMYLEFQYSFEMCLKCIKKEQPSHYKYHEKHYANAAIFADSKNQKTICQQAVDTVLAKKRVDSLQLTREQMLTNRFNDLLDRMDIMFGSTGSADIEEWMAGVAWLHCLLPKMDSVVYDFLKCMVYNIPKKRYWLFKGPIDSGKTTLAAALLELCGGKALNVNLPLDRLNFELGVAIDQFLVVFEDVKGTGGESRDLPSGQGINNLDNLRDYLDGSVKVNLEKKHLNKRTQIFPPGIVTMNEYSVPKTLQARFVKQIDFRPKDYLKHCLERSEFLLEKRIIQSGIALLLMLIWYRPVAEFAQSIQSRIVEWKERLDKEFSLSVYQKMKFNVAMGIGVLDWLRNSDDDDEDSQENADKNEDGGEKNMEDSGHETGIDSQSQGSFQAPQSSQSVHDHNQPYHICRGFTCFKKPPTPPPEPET

Estrogen receptor [9] = biological target: T1, Estrogen receptor; assay: ERα coactivator recruitment enhancers – biochemical, TR-FRET, ERα LBD, dose response (AID 737)
[10] = Trypanosoma cruzi growth suppression in host cells – NIH3T3 host cells, beta-gal luminescence, confirmation (AID 2044); assay type: functional, cell-based;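 also: intracellular parasites grown in NIH/3T3 mouse fibroblasts as host cells; luminescent beta-galactosidase reporter signal from transgenic T. cruzi replicating inside host cells; inhibitors lower the luminescence signal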
[11] = NIH3T3 cell viability loss – ATP luminescence, mouse fibroblasts, counter-screen, dose response (AID 2010); assay type: functional, cell-based;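 also: cells exposed to compound for about 90 hours before reading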
[12] = biological target: Sphingosine 1-phosphate receptor 4 (Homo sapiens, UniProt O95977); assay: Fluorescence dose response cell-based high throughput screening assay for antagonists of the Sphingosine 1-Phosphate Receptor 4 (S1P4). [Related pubchem assays: 1524 (Confirmation in triplicates.), 1510 (Primary screen.)]; assay type: functional
Sphingosine 1-phosphate receptor 4, sequence (O95977 whole entry): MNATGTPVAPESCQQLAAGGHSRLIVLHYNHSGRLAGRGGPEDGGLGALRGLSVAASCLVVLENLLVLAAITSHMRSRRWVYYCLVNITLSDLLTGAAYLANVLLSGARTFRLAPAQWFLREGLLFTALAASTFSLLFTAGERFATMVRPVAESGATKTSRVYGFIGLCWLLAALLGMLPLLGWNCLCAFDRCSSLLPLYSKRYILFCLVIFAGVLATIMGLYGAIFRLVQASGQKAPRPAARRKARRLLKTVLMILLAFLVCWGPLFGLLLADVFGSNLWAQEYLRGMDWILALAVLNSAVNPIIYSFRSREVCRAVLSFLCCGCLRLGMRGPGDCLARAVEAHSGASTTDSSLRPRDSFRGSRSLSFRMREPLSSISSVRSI

[13] = biological target: Sphingosine 1-phosphate receptor 1 (Homo sapiens, UniProt P21453); assay type: functional;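 also: Tango beta-arrestin reporter U2OS cells stimulated with S1P near its EC80; inhibitor potency meaning antagonism of receptor activation by the natural agonist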
Sphingosine 1-phosphate receptor 1, sequence (P21453 whole entry): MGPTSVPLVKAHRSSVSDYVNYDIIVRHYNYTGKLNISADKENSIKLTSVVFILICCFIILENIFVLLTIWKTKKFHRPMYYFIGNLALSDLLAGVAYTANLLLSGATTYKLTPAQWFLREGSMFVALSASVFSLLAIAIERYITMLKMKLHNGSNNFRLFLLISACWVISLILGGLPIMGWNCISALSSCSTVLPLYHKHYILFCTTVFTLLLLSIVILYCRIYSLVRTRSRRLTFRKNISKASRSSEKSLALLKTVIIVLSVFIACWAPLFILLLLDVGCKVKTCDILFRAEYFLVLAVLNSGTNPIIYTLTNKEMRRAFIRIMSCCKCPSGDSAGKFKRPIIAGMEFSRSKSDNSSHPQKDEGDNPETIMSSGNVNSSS

[14] = biological target: T3, Polyadenylate-binding protein 1 (Homo sapiens, UniProt P11940); assay: MLLE binding blockers, Cy5 peptide tracer – biochemical, fluorescence polarization, Cy5-PAM2 peptide, secondary, miRNA deadenylation inhibitor project, dose response (AID 602260); assay type: functional; conditions: read-out: IC50_Mean
T3 sequence (P11940 whole entry, the tested form may be a part): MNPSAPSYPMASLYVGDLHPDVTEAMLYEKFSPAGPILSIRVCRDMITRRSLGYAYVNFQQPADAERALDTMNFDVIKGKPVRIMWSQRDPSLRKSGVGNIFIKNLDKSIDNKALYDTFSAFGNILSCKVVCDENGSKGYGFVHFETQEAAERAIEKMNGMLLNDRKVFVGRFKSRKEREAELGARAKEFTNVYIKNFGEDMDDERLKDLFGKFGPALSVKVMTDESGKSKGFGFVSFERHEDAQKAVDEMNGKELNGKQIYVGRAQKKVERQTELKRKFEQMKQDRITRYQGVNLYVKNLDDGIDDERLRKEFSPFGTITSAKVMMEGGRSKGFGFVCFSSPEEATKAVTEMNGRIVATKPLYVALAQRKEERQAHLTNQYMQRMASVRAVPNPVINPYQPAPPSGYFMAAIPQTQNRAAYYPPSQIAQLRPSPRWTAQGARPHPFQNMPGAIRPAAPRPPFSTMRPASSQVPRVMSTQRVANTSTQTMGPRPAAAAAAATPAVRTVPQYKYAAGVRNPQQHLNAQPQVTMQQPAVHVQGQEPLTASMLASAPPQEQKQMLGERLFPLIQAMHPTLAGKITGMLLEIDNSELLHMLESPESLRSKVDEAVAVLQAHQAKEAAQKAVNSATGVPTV

[15] = biological target: T3, Polyadenylate-binding protein 1; assay: MLLE domain peptide-binding blockers, IC50 – biochemical, fluorescence polarization, FITC-PAM2 peptide, dose response (AID 602259); assay type: functional; conditions: read-out: IC50_Mean

EC50 [1]: > 30 µM (not active)
SMILES: CCC1(CC)NC(=O)N(CC(=O)OCC(=O)c2cc(C)n(Cc3ccccc3)c2C)C1=O

IC50 (Estrogen receptor [2]): 17.9 µM (active)
IC50 [3]: 2.08 µM (active)
SMILES: O=c1oc2ccccc2n1CCn1c2ccccc2c2nc3ccccc3nc21

IC50 (NADPH oxidase 1): > 17 µM (not active)
SMILES: COc1ccc(-c2nc(-c3ccccc3)c(-c3ccccc3)[nH]2)cc1

IC50 [4]: > 100 µM (not active)
IC50 (Bcl-2-related protein A1 [5]): 9.03 µM (active)
IC50 (Bcl-2-related protein A1 [6]): 12.7 µM (active)
SMILES: C[C@@H]1CN(C2=C(Cl)C(=O)N(c3cccc([N+](=O)[O-])c3)C2=O)CCN1

IC50 (Estrogen receptor beta): 33 µM (not active)
SMILES: O=C(CCCn1c(=S)[nH]c2ccccc2c1=O)N1CCN(c2ccc(C(F)(F)F)cc2)CC1

SMILES: CCOP(=O)(c1ccccc1)c1nc(-c2ccccc2C)oc1N1CCCCC1 (stereo not drawn)
EC50 [7]: > 20 µM (not active)
EC50 [8]: > 20 µM (not active)

IC50 (Large T antigen): 78.8 µM (active)
EC50 (Estrogen receptor [9]): 16.1 µM (active)
SMILES: CCOc1ccccc1N1CSC2=C(C#N)C(c3c(OC)ccc4ccccc34)CC(=O)N2C1 (stereo not drawn)

SMILES: Cc1ccnc(N2C(=O)c3cccc4c([N+](=O)[O-])ccc(c34)C2=O)c1
EC50 [10]: 4.58 µM (active)
EC50 [11]: > 30 µM (not active)
IC50 [12]: 1.62 µM (active)
IC50 [13]: 3.43 µM (active)
IC50 [14]: > 66 µM (inactive)
IC50 [15]: 23.4 µM (inactive)
